In patent publication US20240398752A1 (AJOU UNIVERSITY INDUSTRY-ACADEMIC COOPERATION FOUNDATION, priority 2021, published 2024):

Experiments:
in vivo = details: for clearance: CL; for CL renal: CLR; for half-life: Terminal half-life; for Vd: Vss; for Ae0-24 h: urine 24 hours; for reduction in AUC in the LC-ISN group compared to the LC group: isosakuranetin 15 mg/kg
Method: Blood collection was performed at 0, 1, 5, 15, 30, 45, 60, 90, 120, 180, 240, 360, 480, 600, and 720 minutes for intravenous administration of tofacitinib, and at 0, 5, 15, 30, 45, 60, 90, 120, 180, 240, 360, 480, 600, and 720 minutes for oral administration to quantify concentrations of tofacitinib in the plasma. Then, urine was collected for 24 hours to analyze the concentration of tofacitinib excreted in urine as well.

[1] = Method: In the experiment, the concentration of tofacitinib was set at 5, 10, 20, 50, 100, 200, and 500 μM, 1 mg of microsomes and nicotinamide adenine dinucleotide phosphate hydrogen-generating system (Corning Inc., Corning, NY, USA) were blended, and the total volume was adjusted to 1 mL with 0.1 M potassium phosphate buffer (pH 7.4), followed by incubation for 15 minutes at a rate of 50 oscillations per minutes in a water-bath (37° C.). The concentration (Km) of tofacitinib when Vmax, the maximum rate of drug metabolism (Vmax), was halved was measured by the Lineweaver-Burk plot. The intrinsic clearance (CLint) of the drug was calculated by dividing Vmax by Km.
[2] = rat, in vivo, iv, 10 mg/kg, tofacitinib 10 mg/kg intravenous, CON rats
[3] = rat, in vivo, iv, 10 mg/kg, tofacitinib 10 mg/kg intravenous, LC rats
[4] = rat, in vivo, iv, 10 mg/kg, tofacitinib 10 mg/kg intravenous, LC-ISN rats
[5] = rat, in vivo, po, 20 mg/kg, tofacitinib 20 mg/kg oral, CON rats
[6] = rat, in vivo, po, 20 mg/kg, tofacitinib 20 mg/kg oral, LC-ISN 15 rats
[7] = rat, in vivo, po, 20 mg/kg, tofacitinib 20 mg/kg oral, LC rats
[8] = tofacitinib 10 mg/kg intravenous
[9] = tofacitinib 10 mg/kg intravenous, CON rats
[10] = tofacitinib 10 mg/kg intravenous, LC rats
[11] = tofacitinib 10 mg/kg intravenous, LC-ISN rats
[12] = tofacitinib 20 mg/kg oral, CON rats
[13] = tofacitinib 20 mg/kg oral, LC rats
[14] = tofacitinib 20 mg/kg oral, LC-ISN 15 rats

In the case of C[C@@H]1CCN(C(=O)CC#N)C[C@@H]1N(C)c1ncnc2[nH]ccc12 [tofacitinib], the AUC (in vivo; rat, in vivo, iv, 10 mg/kg, AUC, tofacitinib 10 mg/kg intravenous, CON rats) is reported as 7330 ng·h/mL, the AUC (in vivo; rat, in vivo, iv, 10 mg/kg, AUC, tofacitinib 10 mg/kg intravenous, LC rats) is reported as 18900 ng·h/mL and the clearance (in vivo; [2]) is reported as 24.1 ± 6.27 mL/min/kg. For the same compound, the clearance (in vivo; [3]) was 11 ± 2.06 mL/min/kg, the clearance (in vivo; [4]) was 13.8 ± 1.73 mL/min/kg and the CL renal (in vivo; [2]) was 3.73 ± 1.09 mL/min/kg. It also gave a CL renal (in vivo; [3]) of 4.65 ± 2.74 mL/min/kg, a CL renal (in vivo; [4]) of 4.1 ± 1.64 mL/min/kg and a half-life (in vivo; rat, in vivo, iv, 10 mg/kg, tofacitinib 10 mg/kg intravenous, CON (control) rats) of 35.4 ± 19.2 min. For the same compound, the half-life (in vivo; rat, in vivo, iv, 10 mg/kg, tofacitinib 10 mg/kg intravenous, LC rats (liver cirrhosis induced by DMN)) was 113 ± 43.7 min, the Vd (in vivo; [2]) was 0.429 ± 0.253 L/kg and the Vd (in vivo; [3]) was 0.798 ± 0.177 L/kg. For the same compound, the Vd (in vivo; [4]) was 0.8 ± 0.326 L/kg, the AUC (in vivo; rat, in vivo, po, 20 mg/kg, AUC, tofacitinib 20 mg/kg oral, CON rats) was 6400 ng·h/mL and the AUC (in vivo; rat, in vivo, po, 20 mg/kg, AUC, tofacitinib 20 mg/kg oral, LC rats) was 33800 ng·h/mL. The AUC (in vivo; rat, in vivo, po, 20 mg/kg, AUC, tofacitinib 20 mg/kg oral, LC-ISN 15 rats) was 20700 ng·h/mL, the CL renal (in vivo; [5]) was 6.98 ± 2.99 mL/min/kg and the CL renal (in vivo; [6]) was 5.71 ± 2.47 mL/min/kg. The Cmax (in vivo; [5]) was 3530 ± 1460 ng/mL, the Cmax (in vivo; [7]) was 9100 ± 1260 ng/mL and the Cmax (in vivo; [6]) was 6080 ± 1990 ng/mL. The Tmax (in vivo; [5]) was 50 min, the Tmax (in vivo; [7]) was 55.7 min and the Tmax (in vivo; [6]) was 85.7 min. The “increase of AUC in the LC group compared to the CON group” value (in vivo; [8]) was 158%, the “reduction in nonrenal clearance (CLNR) in the LC group compared to the CON group” value (in vivo; [8]) was 69.9% and the “reduction in total body clearance (CL) in the LC group compared to the CON group” value (in vivo; [8]) was 54.4%. The CLNR (in vivo; [9]) was 21.1 ± 4.57 mL/min/kg, the GI24 h (in vivo; [9]) was 0.164 ± 0.102 % of dose and the Ae0-24 h (in vivo; [9]) was 13.9 ± 2.28 % of dose. For the same compound, the CLNR (in vivo; [10]) was 6.35 ± 1.27 mL/min/kg, the GI24 h (in vivo; [10]) was 2.07 ± 2.12 % of dose and the Ae0-24 h (in vivo; [10]) was 40.2 ± 18.9 % of dose. The AUC (in vivo; [11]) was 12300 ± 1780 ng·h/mL, the CLNR (in vivo; [11]) was 9.68 ± 2.40 mL/min/kg and the GI24 h (in vivo; [11]) was 0.166 ± 0.135 % of dose. The Terminal half-life (in vivo; tofacitinib 10 mg/kg intravenous, LC-ISN rats (LC treated with isosakuranetin 15 mg/kg)) was 58.2 ± 16.8 min, the Ae0-24 h (in vivo; [11]) was 30.1 ± 12.3 % of dose and the “reduction in AUC in the LC-ISN group compared to the LC group” value (in vivo; [8]) was 35.1%. The “increase of AUC in the LC group compared to the CON group” value (in vivo; tofacitinib 20 mg/kg oral) was 429%, the F (in vivo; [12]) was 43.6% and the GI24 h (in vivo; [12]) was 0.106 ± 0.101 % of dose. For the same compound, the Ae0-24 h (in vivo; [12]) was 11.8 ± 4.08 % of dose, the CLR (in vivo; [13]) was 3.62 ± 1.78 mL/min/kg and the F (in vivo; [13]) was 89.5%. The GI24 h (in vivo; [13]) was 1.73 ± 2.04 % of dose, the Ae0-24 h (in vivo; [13]) was 35.8 ± 16.9 % of dose and the F (in vivo; [14]) was 84.1%. For the same compound, the GI24 h (in vivo; [14]) was 0.340 ± 0.288 % of dose, the Ae0-24 h (in vivo; [14]) was 35.9 ± 16.8 % of dose and the “reduction in AUC in the LC-ISN group compared to the LC group” value (in vivo; tofacitinib 20 mg/kg oral) was 38.9%. The “Km in the three groups (CON, LC, LC-ISN)” value ([1]; hepatic microsome) was “No significant difference”, the “decrease of Vmax in the LC group compared to the CON group” value ([1]; hepatic microsome) was 63.4% and the “increase of Vmax in the LC-ISN group compared to the LC group” value ([1]; hepatic microsome) was 204%. For the same compound, the “CLint of the LC-ISN group recovered to % of the CON group” value ([1]; hepatic microsomes) was 92.2%, the “decrease of CLint in the LC group compared to the CON group” value ([1]; hepatic microsomes) was 64.9% and the “increase of CLint in the LC-ISN group compared to the LC group” value ([1]; hepatic microsomes) was 163%. For the same compound, the “CLint in the LC group compared to the CON group and the LC-ISN group” value ([1]; small intestinal microsome) was “no statistically significant difference”.
